Results published in patent US20250170248A1, “SMARCA DEGRADERS AND USES THEREOF” (Kymera Therapeutics, Inc., priority 2021, published 2025).

Key:
Format in all cases: cell-based
SMARCA2 [1] = biological target: T1, SMARCA2 (Homo sapiens, UniProt P51531); test: MSD SMARCA2 degradation in A549 cell line; conditions: for Dmax: A549, A549 cells; for Dmax / DC50: 24 h; for DC50 / SMARCA2 MSD A549 degradation 24 h: Average Dmax %: A549 cells; for DC50: read-out: SMARCA2 MSD A549 degradation 24 h: Average external-Abs DC50
In short: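 SMARCA2 protein remaining after 24 h exposure of A549 cells (top concentration 1000 nM, 3-fold dilutions) was measured by MSD electrochemiluminescence immunoassay of cell lysates. Results are given as binned DC50 and maximal degradation (Dmax) codes.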

SMARCA4 = biological target: T2, SMARCA4 (Homo sapiens, UniProt P51532); test: SMARCA4 Western blot degradation in MV4-11 cells; conditions: for Dmax: MV4-11, MV4-11 cells, read-out: SMARCA4 MSD MV411 degradation 24 h: average Dmax %; for Dmax / DC50: 24 h; for DC50 / SMARCA4 MSD MV411 degradation 24 h: average Dmax %: MV4-11 cells; for DC50: read-out: SMARCA4 MSD MV411 degradation 24 h: Mean external-Abs DC50
T2 construct: SMARCA2/SMARCA4 protein degradation selectivity in MV4-11 cells; endogenous in cells; host or cells: MV4-11
In short: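 Fluorescent LI-COR imaging of Western blots quantified SMARCA2 and SMARCA4 protein remaining in MV4-11 cells after 24 h of compound treatment. β-actin was the loading control, and DC50, Dmax and SMARCA2/4 selectivity are given as letter-coded ranges.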

SMARCA2 [2] = biological target: T1, SMARCA2; test: SMARCA2 Western blot degradation in MV4-11 cells; parameters: SMARCA2/SMARCA4 protein degradation selectivity in MV4-11 cells; endogenous in cells; host or cells: MV4-11; conditions: for Dmax: MV4-11, MV4-11 cells, read-out: SMARCA2 MSD MV411 degradation 24 h: average Dmax %; for Dmax / DC50 / SMARCA2 MSD MV411 degradation 24 h: average Dmax %: 24 h; for DC50 / Selectivity in MV411 / SMARCA2 MSD MV411 degradation 24 h: average Dmax %: MV4-11 cells; for DC50: read-out: SMARCA2 MSD MV411 degradation 24 h: Mean external-Abs DC50; for Selectivity in MV411: SMARCA2/4 selectivity

T1 sequence (P51531 whole entry): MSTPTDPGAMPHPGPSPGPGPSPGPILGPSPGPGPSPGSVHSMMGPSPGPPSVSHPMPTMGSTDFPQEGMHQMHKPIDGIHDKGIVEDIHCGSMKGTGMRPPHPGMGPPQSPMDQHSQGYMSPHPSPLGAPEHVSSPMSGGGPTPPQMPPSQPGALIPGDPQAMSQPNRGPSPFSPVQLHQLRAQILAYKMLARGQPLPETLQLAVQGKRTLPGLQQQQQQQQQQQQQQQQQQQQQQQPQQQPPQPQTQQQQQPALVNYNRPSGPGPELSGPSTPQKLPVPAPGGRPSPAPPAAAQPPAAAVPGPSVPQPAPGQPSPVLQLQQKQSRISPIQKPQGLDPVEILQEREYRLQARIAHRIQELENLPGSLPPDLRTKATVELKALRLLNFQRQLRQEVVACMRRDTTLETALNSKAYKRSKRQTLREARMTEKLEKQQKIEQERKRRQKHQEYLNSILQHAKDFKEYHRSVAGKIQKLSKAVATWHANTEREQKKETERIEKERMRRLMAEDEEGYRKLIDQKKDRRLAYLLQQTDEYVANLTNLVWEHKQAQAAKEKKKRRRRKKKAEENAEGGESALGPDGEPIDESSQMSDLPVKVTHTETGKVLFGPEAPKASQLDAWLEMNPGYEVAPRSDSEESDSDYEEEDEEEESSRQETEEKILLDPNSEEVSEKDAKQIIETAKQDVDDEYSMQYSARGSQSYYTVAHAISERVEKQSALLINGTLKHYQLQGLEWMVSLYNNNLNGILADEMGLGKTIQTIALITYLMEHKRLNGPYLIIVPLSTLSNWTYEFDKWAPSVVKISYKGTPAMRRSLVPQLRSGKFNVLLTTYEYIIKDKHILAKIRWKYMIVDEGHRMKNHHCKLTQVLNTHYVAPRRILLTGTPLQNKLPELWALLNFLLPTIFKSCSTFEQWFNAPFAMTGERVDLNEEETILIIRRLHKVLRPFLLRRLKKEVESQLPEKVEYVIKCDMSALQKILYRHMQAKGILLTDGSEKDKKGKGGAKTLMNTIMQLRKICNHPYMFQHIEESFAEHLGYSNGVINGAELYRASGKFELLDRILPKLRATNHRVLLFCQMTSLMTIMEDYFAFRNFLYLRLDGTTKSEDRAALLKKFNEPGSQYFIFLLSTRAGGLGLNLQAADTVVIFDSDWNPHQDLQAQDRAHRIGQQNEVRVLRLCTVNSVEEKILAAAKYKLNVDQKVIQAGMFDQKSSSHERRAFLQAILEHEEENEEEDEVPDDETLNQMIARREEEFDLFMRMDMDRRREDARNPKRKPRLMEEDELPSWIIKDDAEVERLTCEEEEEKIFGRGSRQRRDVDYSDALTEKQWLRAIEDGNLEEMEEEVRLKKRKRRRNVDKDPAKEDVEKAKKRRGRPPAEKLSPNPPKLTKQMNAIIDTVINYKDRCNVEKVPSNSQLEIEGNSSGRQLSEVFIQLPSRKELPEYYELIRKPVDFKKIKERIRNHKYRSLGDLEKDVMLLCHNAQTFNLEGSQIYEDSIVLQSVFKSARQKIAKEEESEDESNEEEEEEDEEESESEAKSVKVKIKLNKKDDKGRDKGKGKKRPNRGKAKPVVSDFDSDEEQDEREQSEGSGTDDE
T2 sequence (P51532 whole entry): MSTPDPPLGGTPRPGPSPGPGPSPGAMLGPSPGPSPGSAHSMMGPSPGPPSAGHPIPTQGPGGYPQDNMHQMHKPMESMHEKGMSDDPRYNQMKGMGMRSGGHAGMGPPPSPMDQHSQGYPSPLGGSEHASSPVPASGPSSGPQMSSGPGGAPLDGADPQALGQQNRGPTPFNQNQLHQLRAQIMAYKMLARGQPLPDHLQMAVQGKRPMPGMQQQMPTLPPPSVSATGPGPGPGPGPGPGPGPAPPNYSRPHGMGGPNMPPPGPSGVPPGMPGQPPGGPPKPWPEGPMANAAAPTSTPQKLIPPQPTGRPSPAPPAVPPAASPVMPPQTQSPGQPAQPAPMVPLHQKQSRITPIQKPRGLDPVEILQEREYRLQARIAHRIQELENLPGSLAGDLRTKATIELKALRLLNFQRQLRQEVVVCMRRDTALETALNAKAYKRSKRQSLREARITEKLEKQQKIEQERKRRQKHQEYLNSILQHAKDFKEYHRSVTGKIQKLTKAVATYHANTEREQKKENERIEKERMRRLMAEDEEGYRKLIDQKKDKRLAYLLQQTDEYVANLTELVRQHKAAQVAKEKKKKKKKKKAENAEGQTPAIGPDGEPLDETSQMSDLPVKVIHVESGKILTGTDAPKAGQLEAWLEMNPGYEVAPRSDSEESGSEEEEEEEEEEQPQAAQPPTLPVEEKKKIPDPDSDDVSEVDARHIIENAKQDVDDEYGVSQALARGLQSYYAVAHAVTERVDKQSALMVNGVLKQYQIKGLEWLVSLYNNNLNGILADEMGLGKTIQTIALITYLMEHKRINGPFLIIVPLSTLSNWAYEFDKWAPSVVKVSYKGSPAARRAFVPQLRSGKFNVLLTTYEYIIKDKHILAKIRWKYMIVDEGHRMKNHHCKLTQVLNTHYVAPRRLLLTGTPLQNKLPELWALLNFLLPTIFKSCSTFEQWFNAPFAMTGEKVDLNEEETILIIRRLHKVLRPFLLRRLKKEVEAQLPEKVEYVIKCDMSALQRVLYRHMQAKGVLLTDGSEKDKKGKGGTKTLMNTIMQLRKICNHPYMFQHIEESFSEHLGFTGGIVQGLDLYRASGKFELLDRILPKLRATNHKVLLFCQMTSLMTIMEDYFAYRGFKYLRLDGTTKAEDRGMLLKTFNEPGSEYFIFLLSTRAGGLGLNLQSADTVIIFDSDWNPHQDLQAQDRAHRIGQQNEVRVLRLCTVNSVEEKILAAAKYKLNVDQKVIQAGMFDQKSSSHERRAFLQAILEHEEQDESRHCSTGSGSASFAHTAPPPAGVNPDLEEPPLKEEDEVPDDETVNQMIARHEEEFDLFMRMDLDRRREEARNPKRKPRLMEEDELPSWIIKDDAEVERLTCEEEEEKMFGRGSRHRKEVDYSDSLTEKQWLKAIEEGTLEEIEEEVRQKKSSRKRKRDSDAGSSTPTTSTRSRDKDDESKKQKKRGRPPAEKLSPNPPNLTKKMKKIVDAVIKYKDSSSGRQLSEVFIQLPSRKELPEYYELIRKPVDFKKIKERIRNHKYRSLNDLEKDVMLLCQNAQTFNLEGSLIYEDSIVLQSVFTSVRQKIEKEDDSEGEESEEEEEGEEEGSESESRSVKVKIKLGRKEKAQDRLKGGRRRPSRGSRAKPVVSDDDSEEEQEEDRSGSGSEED

Compound | Dmax (SMARCA2 [1]) [%] | DC50 (SMARCA2 [1]) [nM] | Dmax (SMARCA4) [%] | DC50 (SMARCA4) [nM] | Dmax (SMARCA2 [2]) [%] | DC50 (SMARCA2 [2]) [nM] | Selectivity in MV411 (SMARCA2 [2]) | SMARCA4 MSD MV411 degradation 24 h: average Dmax % (SMARCA4) | SMARCA2 MSD MV411 degradation 24 h: average Dmax % (SMARCA2 [2]) | SMARCA2 MSD A549 degradation 24 h: Average Dmax % (SMARCA2 [1])
C#Cc1ccc(CNC(=O)[C@@H]2C[C@@H](O)CN2C(=O)[C@@H](NC(=O)[C@H]2CCC3(CC2)C[C@H](N2CCN(c4cnc(N5CCN6c7cc(-c8ccccc8O)nnc7NC[C@H]6C5)nc4)CC2)C3)C(C)(C)C)cc1 (single isomer, unassigned) [I-122] | > 90 | 10 to 50 | 50 to 70 | 10 to 100 | 70 to 90 | 1 to 10 | C (C (10-100 fold)) |  |  | 
C#Cc1ccc(CNC(=O)[C@@H]2C[C@@H](O)CN2C(=O)[C@@H](NC(=O)[C@H]2CCC3(CC2)C[C@H](N2CCC(c4cnc(N5CCN6c7cc(-c8ccccc8O)nnc7NC[C@H]6C5)nc4)CC2)C3)C(C)(C)C)c(OC)c1 (single isomer, unassigned) [I-125] | > 90 | < 10 |  | > 100 |  | 1 to 10 | C (C (10-100 fold)) | C (C (50-70% degradation)) | B (B (>70-90% degradation)) | 
Cc1cc(Cl)ccc1C#CCNC(=O)[C@@H]1C[C@@H](O)CN1C(=O)[C@@H](NC(=O)[C@H]1CCC2(CC1)C[C@H](N1CCC(c3cnc(N4CCN5c6cc(-c7ccccc7O)nnc6NC[C@H]5C4)nc3)CC1)C2)C(C)(C)C (single isomer, unassigned) [I-126] |  | > 100 |  | > 100 |  | > 100 | C (C (10-100 fold)) | D (D (<50% degradation)) | D (D (<50% degradation)) | D (D (<50% degradation))
C#Cc1ccc(CNC(=O)[C@@H]2C[C@@H](O)CN2C(=O)[C@@H](NC(=O)[C@H]2CCC3(CC2)C[C@H](N2CCC(c4cnc(N5CCN6c7cc(-c8ccccc8O)nnc7NC[C@H]6C5)nc4)CC2)C3)C(C)(C)C)c(OCCCN(C)C)c1 (single isomer, unassigned) [I-129] | > 90 | 10 to 50 | > 90 | 10 to 100 | > 90 | 1 to 10 | C (C (10-100 fold)) |  |  | 
C#Cc1ccc(CNC(=O)[C@@H]2C[C@@H](O)CN2C(=O)[C@@H](NC(=O)[C@H]2CCC3(CC2)C[C@H](N2CCC(c4cnc(N5CCN6c7cc(-c8ccccc8O)nnc7NC[C@H]6C5)nc4)CC2)C3)C(C)(C)C)c(OCCCOC)c1 (single isomer, unassigned) [I-130] | > 90 | < 10 | > 90 | 10 to 100 | > 90 | 1 to 10 | D (D (<10 fold)) |  |  | 
C#Cc1ccc(CNC(=O)[C@@H]2C[C@@H](O)CN2C(=O)[C@@H](NC(=O)[C@H]2CCC3(CC2)C[C@H](N2CCC(c4cnc(N5CCN6c7cc(-c8ccccc8O)nnc7NC[C@H]6C5)nc4)CC2)C3)C(C)(C)CCO)cc1 (single isomer, unassigned) [I-131] | > 90 | 10 to 50 | 50 to 70 | 10 to 100 | > 90 | < 1 | C (C (10-100 fold)) |  |  | 
Cc1ncsc1-c1ccc(CNC(=O)[C@@H]2C[C@@H](O)CN2C(=O)[C@@H](NC(=O)[C@H]2CCC3(CC2)C[C@H](N2CCC4(CC2)CN(C(=O)N2CCN5c6cc(-c7ccccc7O)nnc6NC[C@H]5C2)CCO4)C3)C(C)(C)C)cc1 (single isomer, unassigned) [I-133] | 70 to 90 | > 100 | 50 to 70 | > 100 | 70 to 90 | 10 to 100 | C (C (10-100 fold)) |  |  | 
C#Cc1ccc(CNC(=O)[C@@H]2C[C@@H](O)CN2C(=O)[C@@H](NC(=O)[C@H]2CCC3(CC2)C[C@H](N2CCC(c4cnc(N5CCN6c7cc(-c8ccccc8O)nnc7NC[C@H]6C5)nc4)CC2)C3)C(C)(C)C)c(OCCCOC)c1 (single isomer, unassigned) [I-149] |  | 10 to 50 |  | 10 to 100 |  | 1 to 10 | D (D (<10 fold)) | A (A (>90% degradation)) | A (A (>90% degradation)) | A (A (>90% degradation))
C#Cc1ccc(CNC(=O)[C@@H]2C[C@@H](O)CN2C(=O)[C@@H](NC(=O)[C@H]2CCC3(CC2)C[C@H](N2CCC(c4ccc(N5CCN6c7cc(-c8ccccc8O)nnc7NC[C@H]6C5)nc4)CC2)C3)C(C)(C)C)cc1 (single isomer, unassigned) [I-155] | > 90 | 10 to 50 | < 50 | > 100 | 70 to 90 | 1 to 10 | A (A (>500 fold)) |  |  | 
C#Cc1ccc(CNC(=O)[C@@H]2C[C@@H](O)CN2C(=O)[C@@H](NC(=O)[C@H]2CCC3(CC2)C[C@H](N2CCC(c4ccc(N5CCN6c7cc(-c8ccccc8O)nnc7NC[C@H]6C5)nc4)CC2)C3)C(C)(C)C)cc1 (single isomer, unassigned) [I-156] |  | 10 to 50 |  | 10 to 100 |  | 1 to 10 | C (C (10-100 fold)) | B (B (>70-90% degradation)) | B (B (>70-90% degradation)) | A (A (>90% degradation))
C#Cc1ccc(CNC(=O)[C@@H]2C[C@@H](O)CN2C(=O)[C@@H](NC(=O)[C@H]2CCC3(CC2)C[C@H](N2CCC(c4cnc(N5CCN6c7cc(-c8ccccc8O)nnc7NC[C@H]6C5)nc4)CC2)C3)C(C)(C)C)c(OCCCN(C)C)c1 (single isomer, unassigned) [I-158] |  | 50 to 100 |  | 10 to 100 |  | 1 to 10 | C (C (10-100 fold)) | B (B (>70-90% degradation)) | B (B (>70-90% degradation)) | A (A (>90% degradation))
C#Cc1ccc(CNC(=O)[C@@H]2C[C@@H](O)CN2C(=O)[C@@H](NC(=O)N2CCN(C[C@@H]3CCN(c4cnc(N5CCc6[nH]c7nnc(-c8ccccc8O)cc7c6[C@H]5C)nc4)C3)CC2)C(C)(C)C)cc1 (single isomer, unassigned) [I-161] | > 90 | > 100 | 50 to 70 | > 100 | 50 to 70 | 10 to 100 | C (C (10-100 fold)) |  |  | 
C#Cc1ccc(CNC(=O)[C@@H]2C[C@@H](O)CN2C(=O)[C@@H](NC(=O)N2CCN(C[C@H]3CCN(c4cnc(N5CCc6[nH]c7nnc(-c8ccccc8O)cc7c6[C@H]5C)nc4)C3)CC2)C(C)(C)C)cc1 (single isomer, unassigned) [I-162] | > 90 | > 100 | 50 to 70 | > 100 | 50 to 70 | 10 to 100 | C (C (10-100 fold)) |  |  | 
C#Cc1ccc(CNC(=O)[C@@H]2C[C@@H](O)CN2C(=O)[C@@H](NC(=O)[C@H]2CCC3(CC2)C[C@H](N2CCN(c4cnc(N5CCN6c7cc(-c8ccccc8O)nnc7NC[C@H]6C5)nc4)CC2)C3)C(C)(C)C)cc1 (single isomer, unassigned) [I-170] |  | 10 to 50 |  | > 100 |  | 1 to 10 | C (C (10-100 fold)) | C (C (50-70% degradation)) | B (B (>70-90% degradation)) | A (A (>90% degradation))
C#Cc1ccc(CNC(=O)[C@@H]2C[C@@H](O)CN2C(=O)[C@@H](NC(=O)[C@H]2CCC3(CC2)C[C@H](N2CCC(N4CCC(N5CCN6c7cc(-c8ccccc8O)nnc7NC[C@H]6C5)CC4)CC2)C3)C(C)(C)C)cc1 (single isomer, unassigned) [I-174] | > 90 | > 100 | < 50 | > 100 | 70 to 90 | 10 to 100 | B (B (>100-500 fold)) |  |  | 
C#Cc1ccc(CNC(=O)[C@@H]2C[C@@H](O)CN2C(=O)[C@@H](NC(=O)[C@H]2CCC3(CC2)C[C@H](N2CCC(N4CCC(N5CCN6c7cc(-c8ccccc8O)nnc7NC[C@H]6C5)CC4)CC2)C3)C(C)(C)C)cc1 (single isomer, unassigned) [I-175] |  | 50 to 100 |  | > 100 |  | 1 to 10 | B (B (>100-500 fold)) | D (D (<50% degradation)) | B (B (>70-90% degradation)) | A (A (>90% degradation))
C#Cc1ccc(CNC(=O)[C@@H]2C[C@@H](O)CN2C(=O)[C@@H](NC(=O)[C@H]2CCC3(CC2)C[C@H](N2CCC(N4CCC(N5CCN6c7cc(-c8ccccc8O)nnc7NC[C@H]6C5)CC4)CC2)C3)C(C)(C)C)c(OC)c1 (single isomer, unassigned) [I-177] | > 90 | > 100 | 50 to 70 | > 100 | 70 to 90 | 10 to 100 | C (C (10-100 fold)) |  |  | 
